# Laboratory results published in US12268702B2, “Antitumor pharmaceutical composition comprising azvudine and chemotherapeutic agent” (HENAN GENUINE BIOTECH CO., LTD., priority 2023, dated 2025).
# Values joined by “and” are separate entries in the source; they are usually repeats but may differ in a detail not shown here. Equal entries are not always repeated.
# Assays:
# Type in all cases: in vivo
# [1] = tested on: Colo 205 human colon cancer model; assay: Colo 205 human colon cancer subcutaneous xenograft tumor model
# Description: Experimental animals were 68 (48 plus 20 spare mice) BALB/c female nude mice, 7-8 weeks old (the age of mice at the time of tumor cell inoculation) and weighing 15.7-20.7 g, which were purchased from Beijing VitalRiver Experimental Animal Technology Co., Ltd. Breeding environment was SPF grade. The experimental animals were all kept in an independent ventilated box with constant temperature and humidity. The temperature of the breeding room was 20-26° C., the humidity was 40-70%. The breeding room was ventilated 10-20 times per hour. The alternating time of day and night was 12 h/12 h. The mice were continuously supplied with cobalt 60 radiation sterilized mouse complete pellet feed, and had free access to the feed. The mice drank tap water (available after sterilization with high-pressure steam), which was continuously supplied using a water-drinking bottle, and had free access to water. The mouse box was a polysulfone mouse box, which was used after sterilization under high pressure, with a size of 325 mm×210 mm×180 mm.
# Colo 205 cells were cultured in RPMI1640 medium containing 10% fetal bovine serum. Colo 205 cells in the exponential growth phase were collected, resuspended in PBS to an appropriate concentration and mixed with Matrigel at a ratio of 1:1. The resulting mixture was used for subcutaneous inoculation of tumor in mice. 5×10^6 Colo 205 cells were subcutaneously inoculated on the right side of female mice. The day of inoculation was defined as Day 0. When the average tumor volume reached 110.26 mm^3, the mice were randomly divided into groups according to tumor size.
# Relative tumor proliferation rate, T/C %, refers to the percentage value of the relative tumor volume or tumor weight of the treatment group and the control group at a certain time point, which was calculated as follows:
# T/C %=TRTV/CRTV×100% (TRTV: the average RTV of the treatment group; CRTV: the average RTV of the vehicle control group; RTV=Vt/V0, where V0 is the tumor volume of the animal when grouped, and Vt is the tumor volume of the animal after treatment); • or T/C %=TTW/CTW×100% (TTW: the average tumor weight of the treatment group at the end of the experiment; CTW: the average tumor weight of the vehicle control group at the end of the experiment). • Relative tumor inhibition rate, TGI (%), was calculated according to the formula as follows: TGI %=(1−T/C)×100%. (T and C are the relative tumor volumes (RTV) or tumor weights (TW) of the treatment group and the control group at a specific time point).
# [2] = tested on: LoVo xenograft tumor model; assay: LoVo human colon cancer subcutaneous xenograft tumor model; conditions: 21st day of administration, azvudine 1 mpk, capecitabine 400 mpk, combination 1 + 400 mpk; for Tumor volume (mm^3): BALB/c nude mice, p.o. QD x 3 weeks
# Description: Human colon cancer cells LoVo (Cat. No.: ECACC-87060101) were cultured in vitro as a monolayer in F12K medium containing 10% fetal bovine serum, 100 U/mL penicillin and 100 μg/mL streptomycin, in a 37° C. and 5% CO2 incubator. The cells were routinely digested with trypsin-EDTA and passaged twice a week. When the cell saturation reached 80%-90% and the cell number achieved the requirement, the cells were collected, counted and inoculated.
# 0.1 mL)(10×10^6) of LoVo cells were subcutaneously inoculated on the right back of each mouse. The grouping administration was started when the average tumor volume reached about 147 mm^3.
# The tumor volume changes and the tumor weight changes in each group (on the 21st day of administration) after administration of test drugs for treating BALB/c nude mice with Lovo cell subcutaneous xenograft tumor are shown in Table 5 and Table 6 respectively.
# [3] = tested on: Daudi xenograft tumor model; assay: Human Burkitt's lymphoma cell Daudi subcutaneous xenograft tumor model; conditions: combination 1 + 50 mg/kg; for Tumor volume (mm^3) on the 27th day: CB 17 SCID mice, QD x 4 weeks, azvudine 1 mg/kg p.o., cyclophosphamide 50 mg/kg i.p.
# Description: (§1) Human Burkitt's lymphoma cells Daudi (Cat. No.: DSMZ-ACC129) were in vitro suspended and cultured in RPMI 1640 medium containing 10% fetal bovine serum, 2 mM glutamine, 100 U/mL penicillin and 100 μg/mL streptomycin, in a 37° C. and 5% CO2 incubator. When the cell saturation achieved 80%-90% and the cell number reached the requirement, the cells were collected, counted and inoculated.
# 0.2 mL (10×10^6) of Daudi cells (added with Matrigel at a volume ratio of 1:1) were subcutaneously inoculated on the right back of each mouse. The grouping administration was started when the average tumor volume reached about 100 mm^3.
# The changes of tumor volume and tumor weight in each group after administration of test drugs for treating CB 17 SCID mice with Daudi cell subcutaneous xenograft tumor are shown in Table 8 and Table 9 respectively.
# [4] = tested on: MOLT4 xenograft tumor model; assay: Human acute lymphoblastic leukemia MOLT4 cell subcutaneous xenograft tumor model; conditions: combination 1 + 50 mg/kg; for Tumor volume (mm^3) on the 28th day: SCID Beige mice, QD x 4 weeks, azvudine 2 mg/kg in Table 10, cyclophosphamide 50 mg/kg i.p.
# Description: as §1, with “acute lymphoblastic leukemia” for “Burkitt's lymphoma”, “MOLT4” for “Daudi”, “ECACC-85011413)” for “DSMZ-ACC129)”, “serum,” for “serum, 2 mM glutamine,”
# 0.2 mL (10×10^6) of MOLT4 cells (added with Matrigel at a volume ratio of 1:1) were subcutaneously inoculated on the right back of each mouse. The grouping administration was started when the average tumor volume reached about 148 mm^3.
# The changes of tumor volume and tumor weight in each group after administration of test drugs for treating SCID Beige mice with MOLT4 cell subcutaneous xenograft tumor are shown in Table 10 and Table 11.
# [5] = tested on: OVCAR-8 human ovarian cancer model; assay: OVCAR-8 human ovarian cancer subcutaneous xenograft tumor model; conditions: azvudine 1 mg/kg, paclitaxel 15 mg/kg, avastin 10 mg/kg, combinations 1 + 15 and 1 + 10 mg/kg; for T/C (%) / TGI (%) / Tumor volume (x ± S): 34th day after grouping; for average tumor volume: 34th day of administration
# Description: OVCAR-8 cells were cultured in RPMI1640 medium containing 10% fetal bovine serum. OVCAR-8 cells in the exponential growth phase were collected, resuspended in PBS to an appropriate concentration and mixed with Matrigel at a ratio of 1:1. The resulting mixture was used for subcutaneous inoculation of tumor in mice.
# 1×10^7 OVCAR-8 cells were inoculated subcutaneously on the right side of female mice. When the average tumor volume achieved 174.25 mm^3, the mice were randomly divided into groups according to tumor size.
# The experimental protocols for animal experiments in this experiment were reviewed and approved by the CrownBio IACUC committee. During the experiment, the animal experiments were performed in accordance with the requirements of AAALAC. After tumor inoculation was completed, the impact of tumor growth and treatment on normal behavior of animals was routinely monitored, specifically the activity of experimental animals, food intake and water intake, body weight gain or loss (body weight was measured twice a week), eye, hair and other abnormalities. The clinical symptoms observed during the experiment were recorded in the original data. The tumor volume was calculated according to the following formula: tumor volume (mm^3)=½×(a×b^2) (where a represents long diameter and b represents short diameter).
# Relative tumor proliferation rate, T/C %, refers to the percentage value of the relative tumor volume or tumor weight of the treatment group and the control group at a certain time point, which was calculated as follows: • T/C %=TRTV/CRTV×100% (TRTV: the average RTV of the treatment group; CRTV: the average RTV of the vehicle control group; RTV=Vt/V0, where V0 is the tumor volume of the animal when grouped, and Vt is the tumor volume of the animal after treatment); • or T/C %=TTW/CTW×100% (TTW: the average tumor weight of the treatment group at the end of the experiment; CTW: the average tumor weight of the vehicle control group at the end of the experiment).
# Relative tumor inhibition rate, TGI (%), was calculated according to the formula as follows: TGI %=(1−T/C)×100%. (T and C are the relative tumor volumes (RTV) or tumor weights (TW) of the treatment group and the control group at a specific time point).
# To compare tumor volumes of different treatment groups on a given day, first the assumption of homogeneity of variance among all groups was tested using the Bartlett test. When the p-value of Bartlett's test was not less than 0.05, whether all group means were equal was tested using one-way ANOVA. If the p-value of the one-way ANOVA was less than 0.05, pairwise comparisons among all groups were conducted using Tukey's HSD test, or pairwise comparisons between each treatment group and control group were conducted using Dunnett's t-test. When the p-value of Bartlett's test was less than 0.05, whether the medians of all groups were equal was tested using Kruskal Wallis test. If the p-value of the Kruskal Wallis test was less than 0.05, pairwise comparisons among all groups or between each treatment group and control group were conducted using Conover test, and the corresponding p-value correction was performed according to the number of groups in the multiple test.
# [6] = based on tumor volume, 25th day after inoculation, p.o. QD x 3 weeks, azvudine 1 mpk, capecitabine 400 mpk, combination 1 + 400 mpk
# [7] = based on tumor weight, azvudine 1 mpk, capecitabine 400 mpk, combination 1 + 400 mpk
# [8] = based on tumor volume, 27th day, azvudine 1 mg/kg, cyclophosphamide 50 mg/kg
# [9] = based on tumor volume, 28th day, azvudine 2 mg/kg in Table 10, cyclophosphamide 50 mg/kg
molecule,measurement,setting,value
"CCCCCOC(=O)Nc1nc(=O)n([C@@H]2O[C@H](C)[C@@H](O)[C@H]2O)cc1F [Capecitabine, capecitabine]",Tumor volume,"[1]; 25th day after inoculation (20th day after grouping), BALB/c nude mice, p.o. QD x 3 weeks, azvudine 1 mpk, capecitabine 400 mpk, combination 1 + 400 mpk",264.96 ± 38.65(6)
same,average tumor volume,"[1]; 25th day after tumor inoculation (20th day after grouping), azvudine 1 mg/kg, capecitabine 400 mg/kg, combination 1 + 400 mg/kg",264.96 mm^3
same,T/C (%),[1]; [6],18.07%
same,TGI (%),[1]; [6],81.93%
same,T/C (%),[1]; [7],85.92%
same,TGI,[1]; [7],14.08
same,Tumor weight (mg),"[1]; end of experiment, p.o. QD x 3 weeks, azvudine 1 mpk, capecitabine 400 mpk, combination 1 + 400 mpk",193.35 ± 28.54(6) mg
same,Tumor volume (mm^3),[2],919 ± 190 mm^3
same,Tumor volume (mm^3),[2]; listed as capecitabine,919 mm^3
same,Tumor weight,[2],0.893 ± 0.173 g
same,T/C (%),[2]; based on tumor volume,60.94%
same,TGI (%),[2]; based on tumor volume,42.11%
same,TGI (%),"[2]; based on tumor volume, listed as capecitabine",42.11% and 42.1%
same,T/C (%),[2]; based on tumor weight,63.27%
"O=P1(N(CCCl)CCCl)NCCCO1 (centres unmarked) [Cyclophosphamide, cyclophosphamide]",Tumor volume (mm^3) on the 27th day,[3]; 27th day of administration,263 ± 54 mm^3
same,Tumor volume (mm^3) on the 27th day,"[3]; 27th day of administration, listed as cyclophosphamide",263 mm^3
same,Tumor weight (g) (On the 27th day),"[3]; 27th day of administration, azvudine 1 mg/kg, cyclophosphamide 50 mg/kg",0.343 ± 0.066 g
same,T/C (%),[3]; [8],8.83%
same,TGI (%),[3]; [8],94.17%
same,T/Cweight (%),"[3]; based on tumor weight, 27th day, azvudine 1 mg/kg, cyclophosphamide 50 mg/kg",11.49%
same,Tumor volume (mm^3) on the 28th day,[4]; 28th day of administration,716 ± 76 mm^3
same,Tumor volume (mm^3) on the 28th day,"[4]; 28th day of administration, listed as cyclophosphamide CTX",716 mm^3
same,Tumor weight (g) (On the 28th day),"[4]; 28th day of administration, azvudine 1 mg/kg, cyclophosphamide 50 mg/kg",0.822 ± 0.065 g
same,T/C (%),[4]; [9],24.53%
same,TGI (%),[4]; [9],79.34%
same,T/Cweight (%),"[4]; based on tumor weight, 28th day, azvudine 1 mg/kg, cyclophosphamide 50 mg/kg",27.65%
"CC(=O)O[C@H]1C(=O)[C@@]2(C)[C@H]([C@H](OC(=O)c3ccccc3)[C@]3(O)C[C@H](OC(=O)[C@H](O)[C@@H](NC(=O)c4ccccc4)c4ccccc4)C(C)=C1C3(C)C)[C@]1(OC(C)=O)CO[C@@H]1C[C@@H]2O [Paclitaxel, paclitaxel]",T/C (%),[5],73.51%
same,TGI (%),[5],26.49%
same,Tumor volume (x ± S),[5],403.40 ± 69.43(6)
same,TGI (%),[5]; listed as paclitaxel,26.49% and 26.5%
same,average tumor volume,[5],403.40 mm^3
Avastin: positive drug avastin,T/C (%),[5],82.30%
same,TGI (%),[5],17.70%
same,Tumor volume (x ± S),[5],456.04 ± 110.65(6)
same,average tumor volume,[5],456.04 mm^3
